# Measured values reported in patent EP2246337A1, “Use of isoxazole derivatives as cyclooxygenase inhibitors” (Universita' degli Studi di Bari, priority 2004, dated 2005).
# Where two headings read alike, the source gives them in different places. Marks after values point to notes of the source that are not given here.
# How the values were obtained:
# monocyte COX-2 = molecular target: T1, monocyte COX-2 (Homo sapiens, UniProt P35354); assay: COX-2 assay in LPS-stimulated isolated human whole blood (plasma PGE2); format: cell-based; conditions: for IC50: heparinised isolated human whole blood, LPS 10 micrograms/ml, 24 hours, PGE2, means of at least two experiments
# T1 construct: isolated peripheral venous blood samples containing 10 IU of sodium heparin were incubated in the laboratory in the presence of LPS; endogenous in cells; host or cells: monocytes in LPS-stimulated heparinised human whole blood
# T1 sequence (P35354 18-604): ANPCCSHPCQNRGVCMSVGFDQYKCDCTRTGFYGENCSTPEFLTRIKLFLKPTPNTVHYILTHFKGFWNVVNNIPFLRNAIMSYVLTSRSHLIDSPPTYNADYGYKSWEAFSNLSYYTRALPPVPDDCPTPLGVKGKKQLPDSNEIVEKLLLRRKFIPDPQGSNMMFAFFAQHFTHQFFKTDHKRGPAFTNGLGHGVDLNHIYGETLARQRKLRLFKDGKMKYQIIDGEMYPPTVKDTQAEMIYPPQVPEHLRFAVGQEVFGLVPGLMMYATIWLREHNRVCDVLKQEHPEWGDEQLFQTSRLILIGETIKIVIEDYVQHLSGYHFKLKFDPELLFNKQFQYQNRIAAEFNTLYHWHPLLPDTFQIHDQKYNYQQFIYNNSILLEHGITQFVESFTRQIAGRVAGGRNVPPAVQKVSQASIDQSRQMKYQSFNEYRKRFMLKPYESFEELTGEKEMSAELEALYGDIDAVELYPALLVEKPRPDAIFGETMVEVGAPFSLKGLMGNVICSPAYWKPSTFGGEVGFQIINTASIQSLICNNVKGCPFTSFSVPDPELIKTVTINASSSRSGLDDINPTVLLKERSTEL
# platelet COX-1 = molecular target: T2, platelet COX-1 (Homo sapiens, UniProt P23219); assay: COX-1 assay in isolated human whole blood allowed to clot (serum TXB2); format: cell-based; conditions: for IC50: isolated human whole blood clotting 1 hour at 37°C, TXB2, means of at least two experiments
# T2 construct: 1 ml aliquots of isolated whole blood were immediately transferred into glass test tubes and kept at a temperature of 37°C; endogenous in cells; host or cells: platelets in human whole blood (healthy volunteers / study subjects)
# Experimental: 11 healthy volunteers (6 females aged between 25 and 29 years) were enrolled to participate in the study after each having given their written approval.
# 1 ml aliquots of isolated whole blood were immediately transferred into glass test tubes and kept at a temperature of 37°C for 1 hour. The serum was separated by centrifugation (10 min at 3000 rpm) and kept at -70°C until assayed for thromboxane (TX)B2.
# From 4 to 9 different concentrations of each compound were incubated with heparinised isolated whole blood samples in the presence of LPS (10 micrograms/ml) for 24 hours or with isolated whole blood samples allowed to clot at 37°C for 1 hour, in order to examine the concentration-dependence of COX-2 vs. COX-1 inhibition, respectively.
# The concentrations of PGE2 and TXB2 were measured by radioimmunological assays (Patrono C. et al.. Low dose aspirin and inhibition of thromboxane B2 production in healthy subjects. Thromb. Res. 1980; 17: 317-27; Ciabattoni G. et al. J Endocrinol Invest 1979; 2:173-182). Isolated plasma and serum samples were diluted in the standard diluent of the assay (0.02M phosphate buffer, pH 7.4) and assayed in a volume of 1.5 ml at a final dilution of 1:50-1:30.000. 4000 d.p.m. of [^3H]-PGE2 or [^3H]-TXB2 were used and specific anti-PGE2 and anti-TXB2 antibody diluted 1:100,000 and 1:120,000, respectively. The least detectable concentration was 1-2 pg/ml for both prostanoids.
# COX-2 monocyte activity [1] = molecular target: T3, COX-2 monocyte activity (Homo sapiens, UniProt P35354); conditions: rofecoxib 25 mg per day for 5 consecutive days, median (range)
# Experimental: (§3) Subjects with disturbances of a haemorrhagic nature, allergy to aspirin or to other non-steroidal anti-inflammatory drugs (NSAID) or with a history of gastrointestinal disorders were excluded from the study. The subjects refrained from using aspirin or other non-steroidal anti-inflammatory drugs (NSAID) for at least two weeks prior to the study. The blood samples were taken to determine COX-1 platelet activity and COX-2 monocyte activity before treatment with the drug and 12 hours after the last administration (at 8 a.m. on the sixth day of the study).
# (§4) The effects of Rofecoxib on COX-1 platelet activity were assessed (assessing the production of serum TXB2 as described in Patrono et al., Thromb Res 1980;17:317-27) and on COX-2 monocyte activity (measuring the production of PGE2 in whole blood stimulated with LPS, as described in Patrignani et al., J Pharmacol Exp Ther 1994;271:1705-12).
# [2] = tested on: biosynthesis of prostacyclin; assay: Urinary excretion of 2,3-dinor-6-keto-PGF1α (index of systemic prostacyclin biosynthesis in vivo) after rofecoxib; design: species or system human; conditions: for percent change from pretreatment at 25 mg: Homo sapiens, 120 h
# Excerpt: (§1) The collection of overnight urine samples was obtained to assess the urinary excretion of 11-dehydro-thromboxane B2 and of 2,3-dinor-6-keto-PGF1α before treatment with the drug and after the last dose of rofecoxib.
# (§2) Biochim Biophys Acta 1987;918:293-7. […] J Pharmacol Exp Ther 1995;275:94-100).
# COX-2 monocyte activity [3] = molecular target: T3, COX-2 monocyte activity; assay: in vivo
# Experimental: as §3, §4
# COX-1 platelet activity = molecular target: T4, COX-1 platelet activity (Homo sapiens, UniProt P23219); assay: Ex vivo platelet COX-1 activity (serum TXB2) in subjects treated with rofecoxib; conditions: median (range); for Serum Thromboxane B2: rofecoxib 25 mg per day for 5 consecutive days; for COX-1 platelet activity, % of variation vs pretreatment values: 25 mg per day for 5 consecutive days
# T4 construct: 1 ml aliquots of isolated whole blood were immediately transferred into glass test tubes and kept at a temperature of 37°C; endogenous in cells; host or cells: platelets in human whole blood (healthy volunteers / study subjects)
# Experimental: as §3, §4
# [4] = tested on: biosynthesis of Thromboxane A2; assay: Urinary excretion of 11-dehydro-thromboxane B2 (index of systemic thromboxane A2 biosynthesis in vivo) after rofecoxib; design: species or system human; conditions: median (range); for 11-dehydro-thromboxane B2: rofecoxib 25 mg per day for 5 consecutive days, overnight urine; for urinary excretion of 11-dehydro-TXB2, % of pre-drug values: 25 mg per day for 5 days
# Excerpt: as §1, §2
# T2 sequence (P23219 24-599): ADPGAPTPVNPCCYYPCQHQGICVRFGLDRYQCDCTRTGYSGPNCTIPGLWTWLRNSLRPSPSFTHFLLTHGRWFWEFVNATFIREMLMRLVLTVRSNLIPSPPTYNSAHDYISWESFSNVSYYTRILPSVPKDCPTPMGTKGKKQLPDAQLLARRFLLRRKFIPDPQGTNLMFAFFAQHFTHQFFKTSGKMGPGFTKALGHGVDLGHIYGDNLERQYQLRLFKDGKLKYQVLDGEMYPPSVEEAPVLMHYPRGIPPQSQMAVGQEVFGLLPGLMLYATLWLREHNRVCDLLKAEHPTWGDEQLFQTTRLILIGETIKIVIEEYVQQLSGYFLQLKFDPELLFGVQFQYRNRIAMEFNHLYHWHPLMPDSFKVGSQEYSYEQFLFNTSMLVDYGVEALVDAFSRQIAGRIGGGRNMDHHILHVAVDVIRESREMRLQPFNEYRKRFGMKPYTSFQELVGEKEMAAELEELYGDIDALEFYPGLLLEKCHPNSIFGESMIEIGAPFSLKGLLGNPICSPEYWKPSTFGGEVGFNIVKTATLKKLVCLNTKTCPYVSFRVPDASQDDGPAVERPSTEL
# T4 sequence (P23219 24-599): as above
smiles,measurement,setting,value
"Cc1onc(-c2ccccc2)c1-c1ccccc1 [2a (P10), 3,4-Diphenyl-5-methylisoxazole]",IC50,monocyte COX-2,2490 nM
same,COX-1 inhibition (result in words),platelet COX-1,excellent COX-1 inhibitors
same,IC50,platelet COX-1,90 nM
CS(=O)(=O)c1ccc(C2=C(c3ccccc3)C(=O)OC2)cc1 [Rofecoxib],Prostaglandin E2 induced by lipopolysaccharide,"COX-2 monocyte activity [1]; ""Wild-type"" TLR4 subjects",2.3 (0.3-4.2) ^** ng/ml
same,Prostaglandin E2 induced by lipopolysaccharide,COX-2 monocyte activity [1]; Carriers of TLR4 Polymorphisms,5.3 (1.9-11)^** ng/ml
same,"2,3 dinor-6 keto-prostaglandin F1α","[2]; ""Wild-type"" TLR4 subjects, rofecoxib 25 mg per day for 5 consecutive days, overnight urine, median (range)",56.5(38-84)^* pg/mg creatinine
same,"2,3 dinor-6-keto-prostaglandin F1α","[2]; Carriers of TLR4 Polymorphisms, rofecoxib 25 mg per day for 5 consecutive days, overnight urine, median (range)",50 (28-93)^* pg/mg creatinine
same,percent change from pretreatment at 25 mg,"[2]; read-out: inhibition of the urinary excretion of 2,3-dinor-6-keto PGF1α, ""wild-type"" subjects (second value of 'respectively'), 25 mg per day for 5 days, median (range)",-61%
same,percent change from pretreatment at 25 mg,"[2]; read-out: inhibition of the urinary excretion of 2,3-dinor-6-keto PGF1α, carriers of TLR4 polymorphisms (first value of 'respectively'), 25 mg per day for 5 days, median (range)",-64%
same,inhibition of prostacyclin,[2]; similar in the two groups of patients (carriers of TLR4 polymorphisms and wild-type),about 60%
same,inhibition at 25 mg,"COX-2 monocyte activity [3]; read-out: monocyte COX-2 activity ex vivo, % inhibition, carriers of TLR4 polymorphism, 25 mg per day for 5 consecutive days, median (range)",-94%
same,inhibition at 25 mg,"COX-2 monocyte activity [3]; read-out: monocyte COX-2 activity ex vivo, % inhibition, non carriers of TLR4 polymorphism, 25 mg per day for 5 consecutive days, median (range)",-85%
same,Serum Thromboxane B2,"COX-1 platelet activity; ""Wild-type"" TLR4 subjects",233.5 (178-391) ng/ml
same,Serum Thromboxane B2,COX-1 platelet activity; Carriers of TLR4 Polymorphisms,225 (94-728) ng/ml
same,"COX-1 platelet activity, % of variation vs pretreatment values",COX-1 platelet activity; carriers of TLR4 polymorphism,-11(from 0 to -57) %
same,"COX-1 platelet activity, % of variation vs pretreatment values",COX-1 platelet activity; non carriers of TLR4 polymorphism,-10(from 0 to -10) %
same,11-dehydro-thromboxane B2,"[4]; ""Wild-type"" TLR4 subjects",345 (155-595.6) pg/mg creatinine
same,"urinary excretion of 11-dehydro-TXB2, % of pre-drug values","[4]; ""wild-type"" subjects",71 (67-84) %
same,11-dehydro-thromboxane B2,[4]; Carriers of TLR4 Polymorphisms,329 (158-587)^* pg/mg creatinine
same,"urinary excretion of 11-dehydro-TXB2, % of pre-drug values",[4]; carriers of TLR4 polymorphisms,174 (136-354) %
"CCc1onc(-c2ccccc2)c1-c1ccccc1 [2g (P9), 3,4-Diphenyl-5-ethylisoxazole]",IC50,monocyte COX-2,1490 nM
same,COX-1 inhibition (result in words),platelet COX-1,excellent COX-1 inhibitors
same,IC50,platelet COX-1,50 nM
"Cc1onc(-c2ccc(Cl)o2)c1-c1ccccc1 [2c (P6), 3-(5-Chloro-2-furyl)-4-phenyl-5-methylisoxazole]",effect on monocyte COX-2 activity,monocyte COX-2; at concentrations giving virtually complete suppression of platelet COX-1 activity,do not affect monocyte COX-2 activity
same,COX-1 inhibition (result in words),platelet COX-1,excellent COX-1 inhibitors
same,suppression of platelet COX-1 activity,"platelet COX-1; at concentrations that do not affect monocyte COX-2 activity, concentration-response curves",> 90%
same,IC50,platelet COX-1,500 nM
